Measurements taken from patent publication US20150125407A1, “Vesicular Formulations, Uses and Methods” (Sequessome Technology Holdings Ltd, priority 2012, published 2015).

Test system: acne vulgaris
Assay: Use example 1: topical roaccutane alone or layered with Rossoseq gel in teenage acne vulgaris
Settings: topically applied roaccutane alone; person

Compound: CC1=C(/C=C/C(C)=C/C=C/C(C)=C\C(=O)O)C(C)(C)CCC1 [roaccutane]
- effect on acne vulgaris: did not have a significant effect
